Assay: ability of solvents and dispersion mediums to dissolve the therapeutic substance (sirolimus)
Type: physicochemical
Experimental: Solution 524 is a homogeneous mixture in which therapeutic substance 112 dissolves within a solvent or a solvent mixture. In one embodiment, solution 524 includes a high-capacity solvent 528 which is an organic solvent that has a high capacity to dissolve therapeutic substance 112. High capacity as utilized herein is defined as an ability to dissolve therapeutic substance 112 at concentrations greater than 500 mg of substance per milliliter of solvent. Examples of high capacity drug dissolving solvents for sirolimus and similar substances include but are not limited to tetrahydrofuran (THF), di-chloromethane (DCM), chloroform, and di-methyl-sulfoxide (DMSO). In addition to the high-capacity solvent, solution 524 may include an excipient 526 in order to assist in drug elution. In one embodiment, excipient 526 may be a surfactant such as but not limited to sorbitan fatty acid esters such as sorbitan monooleate and sorbitan monolaurate, polysorbates such as polysorbate 20, polysorbate 60, and polysorbate 80, cyclodextrins such as 2-hydroxypropyl-beta-cyclodextrin and 2,6-di-O-methyl-beta-cyclodextrin, sodium dodecyl sulfate, octyl glucoside, and low molecular weight poly(ethylene glycol)s. In another embodiment, excipient 526 may be a hydrophilic agent such as but not limited to salts such as sodium chloride and other materials such as urea, citric acid, and ascorbic acid. […]

solubility in hexane (hexane (precipitator solvent)): insoluble
solubility in water (water): insoluble
Compound: CO[C@H]1C[C@@H]2CC[C@@H](C)[C@@](O)(O2)C(=O)C(=O)N2CCCC[C@H]2C(=O)O[C@H]([C@H](C)C[C@@H]2CC[C@@H](O)[C@H](OC)C2)CC(=O)[C@H](C)/C=C(\C)[C@@H](O)[C@@H](OC)C(=O)[C@H](C)C[C@H](C)/C=C/C=C/C=C/1C [sirolimus]

— patent publication US8381774B2, “Methods for loading a drug eluting medical device” (Medtronic Vascular, Inc., priority 2009, dated 2013)
